Test results taken from paper PMC10463376, “Design, synthesis, in vitro anticancer, molecular docking and SAR studies of new series of pyrrolo[2,3-d]pyrimidine derivatives” (BMC Chemistry, 2023).
In brackets after ≈: the same amount, converted by molar mass. Entries after “also recorded” stand apart in the source; their conditions may differ. Where two headings read alike, the source gives them in different places.

How the values were obtained:
[1] = test system: PACA2 pancreatic cancer cells; test: MTT assay, PACA2; conditions: Homo sapiens, PaCa-2, 72 h; for IC50: read-out: IC50 PACA2; for cytotoxicity at 100 µg/mL: read-out: MTT cell proliferation mortality assay (%) PACA2
Source text: (§1) All of the following steps were done in a sterile Laminar flow class II biosafety cabinet (Baker, SG406INT, Sanford, ME, USA). DMEM was used as a suspension medium for breast cancer (MCF7), colorectal cancer (HCT116), prostate cancer (PC3), liver cancer (HePG2), pancreatic cancer (PACA2) and lung cancer (A549), while normal cell line (BJ1) was suspended in DMEM-F12 medium. The selected cell lines were purchased from American Type Culture Collection (ATCC). The media were supplemented with a 1% antimycotic-antibiotic mixture (10,000 µg/ml streptomycin sulfate, 25 µg/ml Amphotericin B, and 10,000 U/ml Potassium Penicillin) and 1% L-glutamine. 10 × 10^4cells/well were seeded in 96 well microtiter plates and incubated for 24 h at 37 ℃ under 5% carbon dioxide using a water-jacketed Carbon dioxide incubator (Sheldon, SCO5A, OR, USA). […] After the incubation time of 72 h, the medium was removed. Afterward, 40 µl MTT salt ([…]) was added to each well and kept for 4 h under the same conditions of 37 °C and 5% carbon dioxide. Finally, 200 μl of 10% Sodium dodecyl sulfate (SDS) in deionized water was added to each well and incubated overnight at 37 °C. The step of SDS addition was done to stop the reaction and dissolve the formed formazan crystals. The absorbance was then measured at a wavelength of 595 nm and the reference wavelength was set at 620 nm using a microplate multi-well reader (Bio-Rad Laboratories Inc., model 3356, California, USA). […] A statistical significance analysis was determined between the samples and the negative control using an independent t-test by SPSS 11 program. Dimethyl sulfoxide (DMSO) was the vehicle that dissolved our synthesized compounds and its concentration in the cells was less than 0.2%. IC50 values were calculated using the GraphPad Prism 6 program. The degree of selectivity of the synthetic compounds was expressed as SI = IC50 of a pure compound in a normal cell line/IC50 of the same pure compound in the cancer cell line, where IC50 is the concentration of the compound required to kill 50% of the cells.

DR5 = test: RT-qPCR DR5 mRNA in MCF7; format: cell-based, human; conditions: MCF7, vs negative control
Protocol: (§2) All of the extractions were conducted on ice with ice-cold reagents. Total RNA from the different cell lines was isolated using Trizol (Invitrogen; Life Technologies, USA) according to the method of Sthoeger et al.. The 260:280 ratios were measured to determine RNA quality after the isolation method was completed according to the manufacturer’s instructions. A high-capacity cDNA reverse transcription kit was used to produce complementary DNA (cDNA) (Applied Biosystems, USA). […] The relative gene expression method (i.e., ΔΔCT) was used to analyze the real-time PCR data, as explained in Applied Biosystem User Bulletin No. 2. Each sample and gene were normalized using the β-actin gene.

MCF7 breast cancer cells = test: MTT assay, MCF7; conditions: for IC50 / cytotoxicity at 100 µg/mL: Homo sapiens, MCF7, 72 h; for IC50: read-out: IC50 MCF7; for cytotoxicity at 100 µg/mL / cytotoxicity: read-out: MTT cell proliferation mortality assay (%) MCF7; for cytotoxicity: at 100 μg/ml, 72 h
Source text: as §1

CDK4 = test: RT-qPCR CDK4 mRNA in MCF7; format: cell-based, human; conditions: MCF7, vs negative control
Protocol: as §2

HePG2 liver cancer cells = test: MTT assay, HePG2; conditions: Homo sapiens, HepG2, 72 h; for IC50: read-out: IC50 HePG2; for cytotoxicity at 100 µg/mL: read-out: MTT cell proliferation mortality assay (%) HePG2
Source text: as §1

Bcl-2 = test: RT-qPCR Bcl-2 mRNA in MCF7; format: cell-based, human; conditions: MCF7, vs negative control
Protocol: as §2

[2] = test system: HCT116 colorectal cancer cells; test: MTT assay, HCT116; conditions: for IC50 / cytotoxicity at 100 µg/mL: Homo sapiens, HCT-116, 72 h; for IC50: read-out: IC50 HCT116
Source text: as §1

[3] = test system: PC3 prostate cancer cells; test: MTT assay, PC3; conditions: 72 h; for IC50 / cytotoxicity at 100 µg/mL: Homo sapiens; for IC50: read-out: IC50 PC3
Source text: as §1

P53 = test: RT-qPCR P53 mRNA in MCF7; format: cell-based, human; conditions: MCF7, vs negative control
Protocol: as §2

A549 lung cancer cells = test: MTT assay, A549; conditions: for IC50 / cytotoxicity at 100 µg/mL: Homo sapiens, A549, 72 h; for IC50: read-out: IC50 A549
Source text: as §1

IL-8 = test: RT-qPCR IL-8 mRNA in MCF7; format: cell-based, human; conditions: MCF7, vs negative control
Protocol: as §2

caspase 8 = test: ELISA caspase 8 in MCF7 cells; format: cell-based, human; conditions: MCF7 cells treated with IC50; untreated control 3.99
Source text: (§3) Elisa assay was used to determine the concentrations of Human caspases-3, -8, Bax, and Bcl2 in PACA2- and A549-treated cells. Also, the concentrations of caspase-8, Bax, and Bcl2 in MCF7-treated cells were detected. The procedures were followed up according to the instructions described in the following kits; Invitrogen human Caspase-3 Elisa Kit, Catalog KHO1091, DRG® human Caspase-8 ELISA Kit, Catalog (EIA-4863), Human Bax ELISA Kit (ab199080) and Human Bcl-2 ELISA Kit (ab119506) respectively. Shortly, the protocol described in the above kits was as followed; at the beginning, all the reagents, samples and standards were prepared. 100 μl of samples or standard were micro pipetted to each well of micro-well strip and kept at room temperature for 2 h. After washing the micro-well strips three times with washing buffer, the prepared antibody (anti-rabbit-IgG-HRP) at a concentration of 100 μl was added to each well at room temperature for 1 h. Then, the micro-well strips were washed again three times. Afterward, the prepared tetramethyl-benzidine (TMB) solution (100 μl) was added to the micro-well strips and kept for 10 min. At last, about 50 μl of stop solution was pipetted to each well to inactivate the enzyme completely. The absorbance of all samples was measured at a wavelength of 460 nm and compared to that of the standard. Curve fitting software was used to plot a standard curve and the concentrations for the unknown samples were measured from the standard curve.

Bcl2 = test: ELISA Bcl2 in MCF7 cells; format: cell-based, human; conditions: MCF7 cells treated with IC50; untreated control 14.37
Source text: as §3

BAX = test: ELISA BAX in MCF7 cells; format: cell-based, human; conditions: MCF7 cells treated with IC50; untreated control 4.92
Source text: as §3

[4] = MTT assay, normal cell line BJ1; format: cell-based; conditions: human, at 100 μg/ml, read-out: MTT cell proliferation mortality assay (%) BJ1
Source text: as §1

[5] = read-out: MTT cell proliferation mortality assay (%) A549, at 100 μg/ml, 72 h
[6] = read-out: MTT cell proliferation mortality assay (%) HCT116, at 100 μg/ml, 72 h
[7] = read-out: MTT cell proliferation mortality assay (%) PC3, at 100 μg/ml, 72 h

Structure (SMILES) | cytotoxicity at 100 µg/mL [1] [%] | DR5 mRNA level (DR5) | IC50 (MCF7 breast cancer cells) [µg/mL] | cytotoxicity at 100 µg/mL (MCF7 breast cancer cells) [%] | CDK4 mRNA level (CDK4) | IC50 (HePG2 liver cancer cells) [µg/mL] | cytotoxicity at 100 µg/mL (HePG2 liver cancer cells) [%] | Bcl-2 mRNA level (Bcl-2) | IC50 [2] [µg/mL] | IC50 [3] [µg/mL] | P53 mRNA level (P53) | IC50 (A549 lung cancer cells) [µg/mL] | IL-8 mRNA level (IL-8) | caspase 8 level (ELISA) (caspase 8) [pg/mL] | Bcl2 level (ELISA) (Bcl2) [pg/mL] | BAX level (ELISA) (BAX) [pg/mL] | cytotoxicity at 100 µg/mL (A549 lung cancer cells; [5]) [%] | cytotoxicity at 100 µg/mL [2, 6] [%] | cytotoxicity at 72 h, 100 μg/ml [4] [%] | cytotoxicity at 100 µg/mL [3, 7] [%] | further results
COc1cccc2c1C(=O)c1c(O)c3c(c(O)c1C2=O)C[C@@](O)(C(=O)CO)C[C@@H]3O[C@H]1C[C@H](N)[C@H](O)[C@H](C)O1 [Dox, Doxorubicin, reference compound] | 100 | increased | 26.1 ± 0.1 (≈ 48 µM) | 100 | lowered | 21.6 ± 0.8 (≈ 39.7 µM) | 100 | down-regulated | 37.6 ± 0.8 (≈ 69.2 µM) | 23.8 ± 0.2 (≈ 43.8 µM) | up-regulated | 28.3 ± 1.3 (≈ 52.1 µM) | lowered | – | – | – | – | – | – | – | IC50 [1]: 28.3 ± 0.4 µg/mL (≈ 52.1 µM); cytotoxicity at 100 µg/mL ([2]; read-out: MTT cell proliferation mortality assay (%) HCT116): 100%; cytotoxicity at 100 µg/mL ([3]; read-out: MTT cell proliferation mortality assay (%) PC3): 100%; cytotoxicity at 100 µg/mL (A549 lung cancer cells; read-out: MTT cell proliferation mortality assay (%) A549): 100%
COc1ccc(-c2c(Cl)n(-c3ccc(Cl)cc3Cl)c3ncnc(N4CCN(C)CC4)c23)cc1OC [Compound 16b, 6-chloro-7-(2,4-dichlorophenyl)-5-(3,4-dimethoxyphenyl)-4-(4-methylpiperazin-1-yl)-7H-pyrrolo[2,3-d]pyrimidine] | 100 | increased | 5.7 ± 0.9 (≈ 10.7 µM) | 100 | lowered | – | – | down-regulated | – | – | up-regulated; also recorded: significantly increased | – | lowered | 14.72 | 4.25 | 13.25 | 100 | – | – | – | –
NNc1ncnc2c1c(-c1ccc(Br)cc1)c(Cl)n2-c1ccc(Cl)cc1Cl [Compound 14a, 5-(4-bromophenyl)-6-chloro-7-(2,4-dichlorophenyl)-4-hydrazineyl-7H-pyrrolo[2,3-d]pyrimidine] | 100 | increased; also recorded: up-regulated | 1.7 ± 0.4 (≈ 3.52 µM) | 100 | lowered; also recorded: down-regulated | 37.9 ± 0.9 (≈ 78.4 µM) | 100 | down-regulated | – | – | significantly increased; also recorded: up-regulated | – | lowered; also recorded: down-regulated | 8.76 | 2.4 | 9.99 | 100 | 100 | 30.8 ± 0.2 | – | –
CN1CCN(c2nc(C(Cl)(Cl)Cl)nc3c2c(-c2ccc(Br)cc2)c(Cl)n3-c2ccc(Cl)cc2Cl)CC1 [Compound 17, 5-(4-bromophenyl)-6-chloro-7-(2,4-dichlorophenyl)-4-(4-methylpiperazin-1-yl)-2-(trichloromethyl)-7H-pyrrolo[2,3-d]pyrimidine] | 100 | – | – | 74.3 ± 1.7 | – | 8.7 ± 0.8 (≈ 13 µM) | 100 | – | 37.8 ± 0.4 (≈ 56.5 µM) | 66.8 ± 2 (≈ 99.8 µM) | – | 34.1 ± 1.5 (≈ 51 µM) | – | – | – | – | 80 to 90 | 100 | 12.5 ± 1.7 | 80 to 90 | IC50 [1]: 6.4 ± 0.7 µg/mL (≈ 9.57 µM); cytotoxicity ([3]; read-out: MTT cell proliferation mortality assay (%) PC3, at 100 μg/ml): 79.5 ± 0.5%; cytotoxicity (A549 lung cancer cells; [5]): 89.2 ± 0.4%
COc1ccc(-c2c(Cl)n(-c3ccc(Cl)cc3Cl)c3ncnc(NN)c23)cc1OC [Compound 14b, 6-chloro-7-(2,4-dichlorophenyl)-5-(3,4-dimethoxyphenyl)-4-hydrazineyl-7H-pyrrolo[2,3-d]pyrimidine] | 100 | increased; also recorded: up-regulated | 16.8 ± 0.9 (≈ 36.1 µM) | 94.9 ± 1.1 | lowered; also recorded: down-regulated | 17.5 ± 0.8 (≈ 37.7 µM) | 100 | down-regulated | – | 18.7 ± 0.2 (≈ 40.2 µM) | significantly increased; also recorded: up-regulated | – | lowered; also recorded: down-regulated | 18.263 | 8.25 | 14.25 | 100 | 100 | – | 100 | cytotoxicity (MCF7 breast cancer cells): 80 to 95%
COc1ccc(-c2c(Cl)n(-c3ccc(Cl)cc3Cl)c3ncnc(Cl)c23)cc1OC [Compound 4b, 4,6-dichloro-7-(2,4-dichlorophenyl)-5-(3,4-dimethoxyphenyl)-7H-pyrrolo[2,3-d]pyrimidine] | 100 | – | 45.8 ± 1 (≈ 97.6 µM) | 90.3 ± 4.9 | – | 84.3 ± 0.7 (≈ 180 µM) | 84.3 ± 0.9 | – | 58.4 ± 0.7 (≈ 124 µM) | 28.5 ± 0.8 (≈ 60.7 µM) | – | 17.5 ± 0.4 (≈ 37.3 µM) | – | – | – | – | 100 | 80 to 90 | 22.5 ± 0.3 | 100 | cytotoxicity (MCF7 breast cancer cells): 80 to 95%; cytotoxicity [2, 6]: 90.2 ± 1%
